In patent US20260076988A1 (The Cleveland Clinic Foundation, priority 2019, published 2026):
“Also recorded” adds a separate entry of the source. Where two headings read alike, the source gives them in different places. Values belong to the compound of their own block, whether it stands above or below them.

How the values were obtained:
LL3 lung cancer cells = experiment: Syngeneic disseminated lung cancer model (LL3, tail vein); format: in vivo, C57BL/6 mice; details: for increase of time-to-distress over vehicle: treatment from day 21, Dec 0.2, THU-Dec 10/0.1, 5Aza 2, THU-5Aza 10/1 mg/kg sc 3×/wk
Description: (§1) 2-sided Mann-Whitney test.
as §1, §1

[1] = cited from earlier work
[2] = test system: patient-derived AML cells; experiment: Patient-derived xenotransplant (PDX) model of chemorefractory AML; details: for added benefit of ribonucleotide reductase inhibitor to THU+decitabine: dT 2 g/kg IP, hydroxyurea 100 mg/kg IP Day 1 before THU+decitabine days 2 and 3; for human CD45+ (hCD45+) AML cells in bone marrow: Day 45
Description: NSG mice were tail-vein inoculated with patient-derived AML cells (1×10^6 cells/mouse) and randomized to (i) PBS vehicle control; (ii) CDA-inhibition by intra-peritoneal (IP) tetrahydrouridine (THU) and de novo pyrimidine synthesis inhibition by IP thymidine (dT); (iii) Dec; (iv) THU and Dec; (v) THU, Dec and dT (n=5/group). PBS, THU+dT mice were euthanized for distress on D42, and other mice were sacrificed for analysis on D63. […] C) Bone marrow human (hCD45) and murine (mCd45) myelopoiesis content. Flow-cytometry. Median±IQR. p-value Mann-Whitney test 2-sided. […] Median±IQR. p-value Mann-Whitney test 2-sided.
NSG mice were tail-vein inoculated with patient-derived AML cells (1×10^6 cells/mouse) and on Day 9 after inoculation randomized to the treatments as shown (n=7/group). Mice were euthanized if there were signs of distress. A) Experiment schema; B) Time-to-distress and euthanasia. C) Bone marrow human (hCD45) and murine (mCd45) myelopoiesis content. Femoral bones flushed after euthanasia. Measured by flow-cytometry. Median±IQR. D) Spleen weights at time-of-distress/euthanasia. Median±IQR. E) Spleens at the time-of-distress/euthanasia.
NSG mice were tail-vein inoculated with patient-derived AML cells (1×10^6 cells/mouse) and randomized to the treatments shown (n=5/group). Blood counts were obtained periodically by tail-vein phlebotomy. Mice were euthanized for signs of distress. A) Experiment schema; B) Time-to-distress. Log-rank test. […] D) Bone marrow replacement by AML. Bone marrow human and murine CD45+ cells measured by flow-cytometry (FIG. 32) after euthanasia (time-points panel B). Median±IQR. p-value Mann-Whitney test 2-sided. […] Flow cytometry (FIG. 33).
C) Percentage of human CD45+ (huCD45) positive cells in bone marrow. Flow cytometry. Median±IQR. p-value Mann-Whitney test 2-sided. 5 mice in each treatment group analyzed.
Mice were euthanized for signs of distress. A) Experiment schema; B) Time-to-distress. p-value Log-rank test. C) Bone marrow human leukemia cell burden at time-of-distress. Flow cytometry for human CD45+ cells. Median±IQR. p-value Mann-Whitney test 2-sided. […] E) Spleen weights at time-of-distress. Median±IQR. p-value Mann-Whitney test 2-sided.
NSG mice were tail-vein inoculated with patient-derived AML cells (1×10^6 cells/mouse) and on Day 5 after inoculation randomized to the treatments as shown (n=7/group). Mice were euthanized if there were signs of distress.

thoracic malignancies = details: cited from earlier work
Dck, Uck2, Cda and Cad [3] = experiment: F1339 cells: pyrimidine metabolism enzyme expression by QRT-PCR and Western blot; format: cell-based, murine
Protocol: (§2) FIG. 2. […] F1339 p53-null cancer cells were seeded at D0 and treated with DMSO, deoxycytidine (DC, 0.5 μM), cytidine (CY, 5 μM), Dec (0.5 μM) and 5Aza (5 μM). […] Cell counts by automated counter, mean±SD. […] Gene expression by Q-PCR, median±interquartile range (IQR) (3 biological replicates), *p<0.05, **p<0.01. 2-sided Mann-Whitney test. […] Western blot.
RNA was extracted using Trizol reagent (Invitrogen) before the generation of complementary DNA using the iScript™ cDNA Synthesis Kit (Bio-rad). Quantitative PCR was run on StepOnePlus Real-Time PCR System (Applied Biosystems), using comparative Ct value method to quantify the expression of target genes in different samples. Gene expression was normalized to the housekeeping gene β-actin.
Tumor cells were lysed with RIPA lysis buffer and protein concentrations determined by BCA protein assay kit (Thermo Fisher Scientific). Samples with equal quantity (40 μg) of total protein were mixed with 4× loading buffer and 10× sample reducing reagent (Thermo Fisher Scientific), subjected to electrophoresis on a 12% (v/v) SDS-polyacrylamide gel, then transferred onto polyvinylidene fluoride membranes. After blocking with 5% dried skimmed milk, the membranes were washed three times and incubated with primary antibodies at 4° C. overnight. After washing, the membranes were further incubated with corresponding horseradish peroxidase-conjugated secondary antibodies. The membranes were then treated with Pierce™ ECL substrates (Thermo Scientific) then visualized using X-ray film.

[4] = test system: parental HAP1 leukemia cells; experiment: Growth inhibition of parental HAP1 leukemia cells; format: cell-based; details: Homo sapiens
Description: (§3) A) DCK and UCK2 knockout (KO) were confirmed by Western blot. HAP1 leukemia cells, KO by CRISPR-Cas9. B) DCK-KO lowers dCTP and UCK2-KO lowers dTTP. Analysis of independent nucleotide extractions. Means±SD; p-values unpaired t-test, 2-sided. C) Sensitivity of Wildtype, DCK-KO and UCK2-KO HAP1 leukemia cells to Dec vs 5Aza. Means±SD of 3 independent biological replicates.
(§4) Study approvals. Bone marrow samples for research were obtained from patients with AML (Acute myeloid leukemia) with written informed consent on a study protocol approved by the Cleveland Clinic Institutional Review Board (Cleveland, Ohio). Murine experiments were approved by the Cleveland Clinic Institutional Animal Care and Use Committee (Cleveland, Ohio). Sources of cell lines and animals. […] DNMT1 Immuno-detection and quantitation: Immunohistochemistry (IHC) was performed on decalcified and formalin-fixed paraffin embedded bone marrow biopsy sections (4 μm) and on positive and negative controls (parental and DNMT1-KO HCT116 cells). […] Nuclei positive for DNMT1 were identified and quantified in high resolution, large field-of-view images per ImageIQ algorithms (Image IQ Inc., Cleveland, OH) after segmentation of images and subtraction of bone as has been previously described^4.

[5] = test system: DCK-knockout HAP1 leukemia cells; experiment: Growth inhibition of DCK-knockout HAP1 leukemia cells; format: cell-based; details: Homo sapiens
Description: as §3, §4

[6] = test system: UCK2-knockout HAP1 leukemia cells; experiment: Growth inhibition of UCK2-knockout HAP1 leukemia cells; format: cell-based; details: Homo sapiens
Description: as §3, §4

DCK, UCK2, CDA and CAD [7] = experiment: Patients' bone marrow enzyme expression pre-treatment vs relapse, QRT-PCR; format: in vivo, human; details: MDS patients' bone marrow; for average increase of CAD expression at relapse: not in all patients
Description: (§5) Serial bone marrow biopsies from the same patient were cut onto the same slide, stained for DNMT1, and the number of DNMT1-positive nuclei was quantified objectively using ImageIQ software in 13 patients and positive/negative controls (tissue blocks of HCT116 wild-type and DNMT1-knockout cells respectively). D=days of therapy. Pre-Rx=pre-treatment; HI=hematologic improvement; CR=complete remission; SD=stable disease; Rel.=relapse. Mean±SD of ×3 image segments (cellular regions) per sample; p-value paired t-test, 2-sided. C) Expression of key pyrimidine metabolism enzymes at relapse/progression on Dec. […] Bone marrow cells aspirated pre-treatment and at relapse/progression on Dec (13 patients, median duration of therapy 175 days, range 97-922) or 5Aza (14 patients, median duration of therapy 433 days, range 61-1155) were analyzed by QRT-PCR. Mean±SD technical replicates×3. Paired t-test, 2-sided. D) Expression by Western blot of DNMT1 and key pyrimidine metabolism enzymes in Dec-resistant AML cells (THP1, K562, OCI-AML3 and MOLM13), and in parental THP1 AML cells treated with vehicle, Dec or 5-azacytidine (5Aza). Western blots.
DNA isolation, reverse transcription (RT) and real-time PCR. As previously described^59. Primer sequences were:
CAD increased an average of ˜8-fold at relapse on either pro-drug, but not in all patients (FIG. 23C). The proliferation marker MKI67 increased at relapse in almost all the patients, consistent with active progression of disease (FIG. 23C).

DNMT1 = experiment: Serial patient bone marrow biopsies, DNMT1 immunohistochemistry; format: in vivo, human; details: for decrease of DNMT1 protein at time-of-response compared to pre-treatment: 13 patients
Description: as §5, §4

[8] = test system: AML cells (MOLM13, OCI-AML3, THP1); experiment: AML cell proliferation after a single dose; format: cell-based; details: decitabine, deoxycytidine 0.5 μM, 5-azacytidine, cytidine 5 μM
Protocol: (§6) A) Experiment schema. Vehicle, natural deoxycytidine (dC) 0.5 uM, natural cytidine (C) 5 uM, Dec 0.5 uM, or 5Aza 5 uM were added once to AML cells at 0 hours. B) Cell counts. By automated counter. Means±SD for 3 independent biological replicates for each cell line. C) Dec and 5Aza have opposite effects on dCTP levels. Measured by LCMS/MS 24 hrs after addition of Dec or 5Aza. Analyses of 2 or more independent nucleotide extractions from 3 different AML cells lines. Means±SD; p-values paired t-test, 1-sided. D) Gene expression 72 hours after Dec or 5Aza. Gene expression by QRT-PCR, relative to average expression in vehicle-treated controls. Means±SD for 3 independent biological replicates in each of 3 AML cell lines; p-values unpaired t-test vs vehicle, 2-sided. E) Western blot 72 hours after Dec or 5Aza. AML cells THP1, OCI-AML3 and K562. Western blots were reproduced in three independent biological replicates.

[9] = test system: F1339 p53-null SCLC cells; experiment: F1339 SCLC cells in vitro: proliferation, apoptosis, differentiation; format: cell-based, murine
Protocol: as §2

DCK = details: leukemia cells, within 48 hours; cited from earlier work
[10] = test system: dCTP, dTTP and pyrimidine metabolism enzymes; experiment: AML cells: nucleotide levels (LCMS/MS) and enzyme expression (QRT-PCR, Western blot); format: cell-based
Protocol: as §6
C) Off-target pathways of Dec and 5Aza. D) Effects of Dec and 5Aza on RRM2A, RRM2B and CTPS1 protein levels. Western blots 72 hours after addition of a single dose of Dec 0.25 μM or 5Aza 2.5 uM. Western blots were reproduced in biological replicates.

[11] = lung cancer cells, within 72-96 hours
[12] = THU+dT day 42, other treatments day 63
[13] = HAP1, read-out: GI50 (concentration for 50% growth inhibition)

myelosuppression (LL3 lung cancer cells; murine models of lung cancer): without bone marrow suppression
SMILES: O=C1NC(O)CCN1[C@@H]1O[C@H](CO)[C@@H](O)[C@H]1O (stereo partly drawn) [THU, tetrahydrouridine]
increase of efficacy of decitabine or 5-azacytidine by THU (LL3 lung cancer cells; in vivo studies of murine lung cancer): ~2 fold
increase of oral bioavailability of decitabine and 5-azacytidine ([1]; addition of THU): ~10 fold
increase of plasma half-lives of decitabine and 5-azacytidine ([1]; addition of THU): ~10 fold

SMILES: Cc1cn([C@H]2C[C@H](O)[C@@H](CO)O2)c(=O)[nH]c1=O [dT, deoxythymidine]
added benefit of ribonucleotide reductase inhibitor to THU+decitabine [2]: did not add further to the benefit from THU

SMILES: Nc1ncn([C@H]2C[C@H](O)[C@@H](CO)O2)c(=O)n1 [decitabine]
myelosuppression (thoracic malignancies; human, in vivo): grade ¾ myelosuppression
sustained plasma concentration (thoracic malignancies; intravenous infusion, for ~72 hours): > 40 nM
increase of time-to-distress over vehicle (LL3 lung cancer cells): about 20 days
CDA upregulation (Dck, Uck2, Cda and Cad [3]; [11]): ~3 fold
UCK2 upregulation (Dck, Uck2, Cda and Cad [3]; [11]): ~3 fold
median survival (time-to-distress) ([2]; Dec 0.2 mpk SC Day 1 and 2 each week): 75 days
median survival (time-to-distress) ([2]; Dec 0.2 mpk SC Day 1 and 4 each week): 60 days
human CD45+ (hCD45+) AML cells in bone marrow ([2]; Dec 0.3 mpk SC Day 1 and 2 each week): ~26%
human CD45+ (hCD45+) AML cells in bone marrow ([2]; Dec 0.3 mpk SC Day 1 and 4 each week): ~63%
bone marrow hCD45+ [2, 12]: ~85%
bone marrow murine Cd45+ (murine hematopoiesis) [2, 12]: ~5%
DNMT1-depletion in bone marrow cells ([2]; day 63, on-therapy, flow cytometry): ~35%
median survival (time-to-distress) ([2]; week-to-week alternation experiment (FIG. 28)): 111 days
GI50 [4, 13]: 3 µM
GI50 [5, 13]: 12 µM
GI50 [6, 13]: 0.1 µM
decrease of DCK expression at relapse (DCK, UCK2, CDA and CAD [7]): ~50%
increase of CDA expression at relapse (DCK, UCK2, CDA and CAD [7]): ~3 fold
increase of UCK2 expression at relapse (DCK, UCK2, CDA and CAD [7]): ~8 fold
average increase of CAD expression at relapse (DCK, UCK2, CDA and CAD [7]): ~8 fold
in vivo plasma half-life [1]: ~15 min
decrease of DNMT1 protein at time-of-response compared to pre-treatment (DNMT1): ~50%

GI50 ([5]; HAP1, DCK-knockout cells, read-out: GI50 (concentration for 50% growth inhibition)): 2 µM
GI50 ([6]; HAP1, UCK2-knockout cells, read-out: GI50 (concentration for 50% growth inhibition)): 15 µM
SMILES: Nc1ncn([C@@H]2O[C@H](CO)[C@@H](O)[C@H]2O)c(=O)n1 [5-azacytidine]
increase of time-to-distress over vehicle (LL3 lung cancer cells): about 20 days
AML cell proliferation [8]: significantly decreased AML cell proliferation
cell membrane Annexin-V staining (apoptosis-induction) ([9]; 24 hours after initiation of drug exposure): unaltered cell membrane Annexin-V staining
morphologic changes of differentiation ([9]; Giemsa-stained cytospins Day 5): induced morphologic changes in the cells consistent with differentiation induction
Myc protein ([9]; Western blot Day 5): decreased Myc protein
p27/CDKN1B protein ([9]; Western blot Day 5): increased p27/CDKN1B protein
F1339 proliferation ([9]; decitabine 0.5 μM, 5-azacytidine 5 μM, cytarabine 0.5 μM): significantly decreased F1339 proliferation; also recorded: did significantly impede the SCLC cell proliferation
expression of Dck, Uck2, Cda and Cad (Dck, Uck2, Cda and Cad [3]; decitabine 0.5 μM, 5-azacytidine 5 μM): increased Dck, Cda and Cad expression several-fold
CAD upregulation (Dck, Uck2, Cda and Cad [3]; lung cancer cells): ~2 fold
DCK upregulation (Dck, Uck2, Cda and Cad [3]; lung cancer cells): ~3 fold
GI50 ([4]; HAP1, parental cells, read-out: GI50 (concentration for 50% growth inhibition)): 4 µM
decrease of CDA expression at relapse (DCK, UCK2, CDA and CAD [7]): ~50%
decrease of UCK2 expression at relapse (DCK, UCK2, CDA and CAD [7]): ~50%
increase of DCK expression at relapse (DCK, UCK2, CDA and CAD [7]): ~8 fold
average increase of CAD expression at relapse (DCK, UCK2, CDA and CAD [7]): ~8 fold
in vivo plasma half-life [1]: ~15 min
DCK upregulation (DCK): ~30%
DNMT1 protein [10]: depleted DNMT1
RRM1 protein [10]: decreased levels of the ribonucleotide reductase sub-unit RRM1
TYMS protein [10]: downregulated
dCTP amount ([10]; 24 hour time-point): significantly decreased
dTTP amount ([10]; 24 hour time-point): decreased by both pro-drugs, but not to statistical significance
CDA mRNA and protein expression ([10]; 72 hour time-point): significantly increased
DCK mRNA and protein expression ([10]; 72 hour time-point): significantly increased
phosphorylation of CAD at serine 1856 ([10]; 72 hour time-point): decrease phosphorylation of CAD at serine 1856
total CAD or CTPS1 levels ([10]; 72 hour time-point): Neither pro-drug changed total CAD
DNMT1 protein at time-of-relapse on-therapy (DNMT1): rebounded to levels comparable to pre-treatment levels
decrease of DNMT1 protein at time-of-response compared to pre-treatment (DNMT1): ~50%

SMILES: Nc1ccn([C@H]2C[C@H](O)[C@@H](CO)O2)c(=O)n1 [deoxycytidine]
AML cell proliferation [8]: did not impact proliferation

SMILES: Nc1ccn([C@@H]2O[C@H](CO)[C@@H](O)[C@H]2O)c(=O)n1 [cytidine]
AML cell proliferation [8]: did not impact proliferation

SMILES: NC(=O)NO [hydroxyurea]
added benefit of ribonucleotide reductase inhibitor to THU+decitabine [2]: did not add further benefit to THU+decitabine
